Measured values: patent US6709688B1, “Pigment” (Norsk Hydro ASA, priority 1999, dated 2004)
Read-outs that look alike come from different tables or passages of the source.

Key:
[1] = tested on: enzymes from salmon intestinal fluid; assay: Hydrolysis of astaxanthin diesters with enzymes from salmon intestinal fluid (Example 2); assay type: in vitro ADME, Atlantic salmon; details: after 45 hours at room temperature
Procedure: To verify the hydrolysis data for these astaxanthin diesters obtained by using the commercial lipase, another similar experiment was performed by using enzyme isolated from the intestine of Atlantic salmon.
A similar experiment as Example 1 was performed with enzymes from salmon intestinal fluid. The intestinal fluid from salmon was collected as described from cod (Lie, Ø. et al., Comp. Biochem. Physiol., 80B (3), (1985), pp. 447-450). The following results were obtained after 45 hours at room temperature: […]

[2] = tested on: commercial lipase, Candida rugosa (Lipase AY, 30); assay: Hydrolysis of astaxanthin diesters by commercial lipase
Procedure: We synthesised several other diesters in order to study whether these hydrolysed faster than the dipalmitate.
Diesters of astaxanthin were prepared with the following carboxylic acids: elaidic acid (trans-C18:1), palmitic acid (C16:0), decanoic acid (C10:0) and a concentrate of omega-3 fatty acids comprising approximately 50% eicosapentaenoic acid (EPA) (all cis C20:5 n3) and approximately 35% docosahexaenoic acid (DHA) (all cis C22:6 n3). The different diesters were firstly hydrolysed by a commercial lipase, Candida rugosa (Lipase AY, 30).

[3] = cited from earlier work
[4] = tested on: crude enzyme mixture from rainbow trout intestine; assay: Hydrolysis with crude enzyme mixture from rainbow trout intestine (Example 5); assay type: in vitro ADME, rainbow trout (Oncorhynchus mykiss); details: after 48 hours hydrolysis; for Diol (%): diol = free astaxanthin
Procedure: (§1) Tris buffer (0.25 M) solution was prepared by dissolving Tris (4.54 g; 37.5 mmol) in 150 ml of distilled water. The pH of the buffer solution was adjusted to 8.0 by adding 2 M hydrochloric acid. All the hydrolysis was done at room temperature so no special effort was necessary.
(§2) The astaxanthin diester was weighed accurately (˜40 mg, […]) along with 2.5 g of chremophor EL emulsifier (from BASF) into 100 ml Erlenmeyer flask. The solution was stirred vigorously for 20 minutes (until homogeneous) and then 20 ml of the Tris buffer was added and stirred for additional 10 minutes. The solution was suction filtered and the red filtrate was poured into 25 ml volumetric flask and diluted to the mark with buffer. Concentration of all the solution was determined spectrophotometically (492 nm) to be about 1 mg/ml, except for diacetate which was obtained in a lower concentration. All the solutions were stored in refrigerator wrapped in aluminium paper.
(§3) Fresh salmon and rainbow trout, that had been fed in the last 12 hours, were obtained from local fish farms. At the laboratory the fresh fish was cut open and the crude enzyme mixture extracted as follows: From the digestion line there were a lot of narrow tubes surrounded by fat tissue. Each of them was cut off and extracted by hand into a cooled container. The viscous solution (−50 ml) was diluted to 100 ml with 0.25 M Tris buffer and stirred for 30 minutes in an ice bath. Next step was centrifugation at 11.000 rpm for 20 minutes at 4° C. (RC5C from Du Pont). The water layer was extracted by pipette to another centrifuge glasses and the centrifugation repeated at 18.000 rpm for 30 minutes at 4° C. The water layer was transferred to Erlenmeyer flask and quickly frozen by liquid nitrogen. Before starting the reaction the mixture was thawed and purified by ultracentrifuge at 27.000 rpm for 45 minutes at 4° C. (157.000 g at top). The lipase preparation was obtained as a clear yellow solution.
(§4) Into a 10 ml round bottom flask was added 2 ml of stock solution and 3 ml of crude enzyme mixture from fish intestine. The flask was filled with nitrogen before closing, wrapped in aluminium paper and stirred for 48 hours. When finished, all the water was removed under reduced pressure (0.01 Torr) and redissolved in CH2Cl2. The solution was filtered through cotton wool plug and stored under nitrogen in a closed container. Analytical TLC was used to monitor the progress of the reaction with 5% acetone in CH2Cl2 as eluent (Diol(Rf=0.0-0.1), Monoest. (Rf=0.3-0.5), Diest. (Rf=0.8-0.9)). To determine the degree of hydrolysis all the samples were injected into analytical HPLC. [Eluent: 30% acetone in n-hexane. Column: Nucleosil 50-5 (2×30 cm) column. Flow rate: 0.15 ml/min. Detector: 470 nm (Diol Rf=0.4-0.5, Monoest. Rf=0.7, Diest. Rf=0.9-1.0)].
A similar example as Example 2b was performed. However, for this Example crude enzyme preparation from rainbow trout (Oncorhynchus mykiss) was used. […] For the fish oil 37% was unreacted, while for ACD only 14% remained unreacted. As for salmon, we observe that EPA reacts faster than DHA (17 and 21% unreacted), however for rainbow trout we observe that an omega-3 concentrate like the ACD diester gives higher degree of hydrolysis than the diester of purified EPA.

[5] = tested on: crude enzyme mixture from salmon intestine; assay: Hydrolysis with crude enzyme mixture from salmon intestine (Example 4); assay type: in vitro ADME; details: after 48 hours hydrolysis; for Diol (%): diol = free astaxanthin
Procedure: as §1, §2, §3, §4
A similar experiment as in Example 2 was performed with enzymes from salmon intestinal fluid.
The diesters that were hydrolysed were prepared by esterification of astaxanthin with the following carboxylic acids:
Acetic acid, C16:0 (palmitic acid), fatty acids from a fish oil rich in omega-3 fatty acids (approx. 18% EPA and 12% DHA, called K30 in the tables below), a concentrate of omega-3 fatty acids (approx. 30% EPA and 20% DHA, called K55 in the tables below), the same concentrate of EPA and DHA as used in example 2 (approx. 50% EPA and 35% DHA, called ACD in the tables below), purified EPA (more than 95% EPA, called EPA in the tables) and purified DHA (more than 90% DHA, called DHA in the tables).

Structure (SMILES)	Free astaxanthin (%) [1] [%]	Free astaxanthin (%) ([1]; listed as C10:0)	Free astaxanthin (%) ([1]; listed as didecanoate)	Free astaxanthin (%) [2] [%]	pigmentation compared with the diol ([3]; literature)	absorption compared with free astaxanthin ([3]; rainbow trout, sea trout and Atlantic salmon)	Diesters (%) [4] [%]	Monoesters (%) [4] [%]	Diol (%) [4] [%]	Diesters (%) [5] [%]	Monoesters (%) [5] [%]	Diol (%) [5] [%]	Diol (%) ([5]; listed as diester of astaxanthin with palmitic acid (16:0))	Free astaxanthin (%) ([2]; after 42 hours at room temperature, commercial lipase Candida rugosa)
CCCCCCCCCC(=O)O[C@H]1CC(C)(C)C(/C=C/C(C)=C/C=C/C(C)=C/C=C/C=C(C)/C=C/C=C(C)/C=C/C2=C(C)C(=O)[C@@H](OC(=O)CCCCCCCCC)CC2(C)C)=C(C)C1=O [10:0]	6	hydrolysed much faster than the dipalmitate	6	–	–	–	–	–	–	–	–	–	–	–
CCCCCCCCCCCCCCCC(=O)O[C@H]1CC(C)(C)C(/C=C/C(C)=C/C=C/C(C)=C/C=C/C=C(C)/C=C/C=C(C)/C=C/C2=C(C)C(=O)[C@@H](OC(=O)CCCCCCCCCCCCCCC)CC2(C)C)=C(C)C1=O [16:0, astaxanthin dipalmitate, reference compound]	1	–	–	40	less pigmentation than the diol	absorbed less easy than free astaxanthin	71	18	11	81	19	0	no free astaxanthin	–
CCCCCCCCC=CCCCCCCCC(=O)OC1CC(C)(C)C(C=CC(C)=CC=CC(C)=CC=CC=C(C)C=CC=C(C)C=CC2=C(C)C(=O)C(OC(=O)CCCCCCCC=CCCCCCCCC)CC2(C)C)=C(C)C1=O (stereo not shown) [18:1]	1	–	–	–	–	–	–	–	–	–	–	–	–	73
CC(=O)O [Acetate]	–	–	–	–	–	–	3	83	14	13	80	7	–	–
CC/C=C\C/C=C\C/C=C\C/C=C\C/C=C\C/C=C\CCC(=O)O[C@H]1CC(C)(C)C(/C=C/C(C)=C/C=C/C(C)=C/C=C/C=C(C)/C=C/C=C(C)/C=C/C2=C(C)C(=O)[C@@H](OC(=O)CC/C=C\C/C=C\C/C=C\C/C=C\C/C=C\C/C=C\CC)CC2(C)C)=C(C)C1=O [DHA]	–	–	–	–	–	–	21	55	24	44	53	3	–	–
CC/C=C\C/C=C\C/C=C\C/C=C\C/C=C\CCCC(=O)O[C@H]1CC(C)(C)C(/C=C/C(C)=C/C=C/C(C)=C/C=C/C=C(C)/C=C/C=C(C)/C=C/C2=C(C)C(=O)[C@@H](OC(=O)CCC/C=C\C/C=C\C/C=C\C/C=C\C/C=C\CC)CC2(C)C)=C(C)C1=O [EPA]	–	–	–	–	–	–	17	58	25	27	67	6	–	–
